Laboratory results taken from US5726041A, “Method for detecting a receptor-ligand complex using a cytochrome P450 reporter gene” (priority 1996, dated 1998).
Where two headings read alike, the source gives them in different places.

Columns and labels:
mouse PPARα = target: T1, mouse PPARα (Mus musculus, UniProt P23204); assay: Native PPARα / PPRE CYP2A6 reporter, coumarin 7-hydroxylase induction; details: for fold induction at 1100 µM: 1.1 mM clofibrate vs basal; for maximal fold induction: read-out: Maximum Fold Induction, clofibrate-induced CYP2A6 activity
T1 sequence (P23204 1-468): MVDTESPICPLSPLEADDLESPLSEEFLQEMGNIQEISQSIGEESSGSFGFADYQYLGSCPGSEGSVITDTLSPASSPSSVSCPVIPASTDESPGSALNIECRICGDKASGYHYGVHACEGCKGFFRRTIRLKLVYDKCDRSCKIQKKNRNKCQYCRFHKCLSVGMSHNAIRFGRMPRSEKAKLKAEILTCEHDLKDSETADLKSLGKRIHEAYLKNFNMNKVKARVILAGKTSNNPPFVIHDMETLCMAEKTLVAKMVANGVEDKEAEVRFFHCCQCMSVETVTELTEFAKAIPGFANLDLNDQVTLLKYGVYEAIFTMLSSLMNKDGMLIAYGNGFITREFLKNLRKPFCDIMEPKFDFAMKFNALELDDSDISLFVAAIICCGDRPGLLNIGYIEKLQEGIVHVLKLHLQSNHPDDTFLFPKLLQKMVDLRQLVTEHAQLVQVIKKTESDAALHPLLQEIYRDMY
Protocol: (§1) MMTV-LTR1 is native, MMTV-LTR2 is minus CpG, MMTV-LTR3 is TATA only. Orientation is relative to reporter. CH activity is pmole per 10^6 cell min. Assuming the cells double every 24 hours, the maximium cell density is 2×10^6 cells per ml, using the log average cell concentration for each day of exposure. Earliest post fusion-values were used. […] It is merely a concentration in the monotonic portion of the dose response curve which has been used consistently in many experiments.
The comparison was performed by incubating 0.2 ml cells for 3 days in the wells of a microtiter plate at an initial cell concentration of 5×10^5 cells per ml in the presence of increasing amounts of inducer and 50 uM coumarin.
(§2) In this test we used an initial cell concentration of 2 million cells/ml contained in 0.2 ml culture medium per well of a 96 well microtiter plate. Coumarin (0.05 mM) and clofibrate (concentration was an experimental variable) were added at the beginning of the incubation time. Cells were incubated for 3 days and the 7-hydroxycoumarin content in the wells was analyzed by fluorescence with excitation at 360 nm and emission at 460 nm using a Cytofluor 2350 (Millipore). […] The elevation in pH increases 7-hydroxycoumarin fluorescence by increasing the proportion of the fluorochrome which is ionized. Quantitation was achieved by comparison to a 7-hydroxycoumarin standard curve.
The ACO-PPRE constructs were centrifuged and resuspended at a density of 2 million cells per milliliter in RPMI media with 9% horse serum. One hundred microliters of the cell suspension was distributed into a total of four rows, two rows being at the opposite end of a 96 well microtiter plate. One set was labeled as clofibrate and the other set was labeled as the blank. Clofibrate was then added at concentration of 3 mM, 2 mM, 1 mM, 0.5 mM & 0 mM to the appropriate wells. Stock concentration of clofibrate was 50 mM in 75 mM NaOH. One hundred microliters of media containing 100 micromolar coumarin was then added to the clofibrate containing wells. The negative control contained cell suspension and 100 uM coumarin only. The plates were placed at […] for three days. In a distinct set of wells, one hundred microliters of hydroxy-coumarin standard was placed in two rows The concentrations are in units of pmoles and the values are: 1250, 625, 313, 156, 78, 39, 19.5 & 0. At the end of the three day incubation period, one hundred microliters of media containing 100 uM coumarin was added to the wells labeled as blank. Next 0.1M Tris pH 9.0 was distributed to the contents of each well. Fluorescence was analyzed with a cytofluor 2350 (Millipore) with excitation at 360 nm and emission at 460 nm (both filters with a 40 nm bandwidth). The net fluorence was calculated by subtracting the fluorescence of the blank wells from the fluorescence of the test wells for each clofibrate concentration. Conversion to pmole product per well was accomplished by comparison to the fluorescence of the standards. The responsiveness of the different constructs to clofibrate induction was measured immediately after viable, hygromycin resistant cells were obtained and periodically thereafter in order to evaluate the stability of the system. The data were graphed as the fold induction relative to the without clofibrate control incubation. This is a measure of the responsiveness of the system and corrects for differences in the negative control values for the different reporter constructs.

[1] = test system: reporter construct without PPARα; assay: CYP2A6 reporter in control cells without PPARα or chimeric receptor; details: for fold induction at 1100 µM: Homo sapiens, 1.1 mM clofibrate vs basal
Protocol: (§3) Cells containing chimeric receptors for the rat, mouse and human PPARα ligand binding domain and rat GR DNA binding domain, as well as control cells, were examined for CH induction by clofibrate in the presence of LPS and spironolactone during clofibrate treatment. Incubations contained 5 ug/ml E. coli lipopolysaccharide and 10 uM spironolactone and were uncorrected for cell progression. Incubations were performed under the same conditions as described above. […] Cells were grown in a volume of 0.2 ml in the wells of a 96 well microtiter plate from an initial cell density of 5×10^5 cells per ml. […] The T194, T194/T144 and T194/EH#7 cell lines contain the mouse PPARα cDNA.
as §1
The above-described assay conditions were used and the results were normalized to the respective basal expression levels.
as §2

hPPAR = target: T2, hPPAR (Homo sapiens, UniProt Q07869); assay: cell-based; details: 1.1 mM clofibrate vs basal
T2 sequence (Q07869 1-468): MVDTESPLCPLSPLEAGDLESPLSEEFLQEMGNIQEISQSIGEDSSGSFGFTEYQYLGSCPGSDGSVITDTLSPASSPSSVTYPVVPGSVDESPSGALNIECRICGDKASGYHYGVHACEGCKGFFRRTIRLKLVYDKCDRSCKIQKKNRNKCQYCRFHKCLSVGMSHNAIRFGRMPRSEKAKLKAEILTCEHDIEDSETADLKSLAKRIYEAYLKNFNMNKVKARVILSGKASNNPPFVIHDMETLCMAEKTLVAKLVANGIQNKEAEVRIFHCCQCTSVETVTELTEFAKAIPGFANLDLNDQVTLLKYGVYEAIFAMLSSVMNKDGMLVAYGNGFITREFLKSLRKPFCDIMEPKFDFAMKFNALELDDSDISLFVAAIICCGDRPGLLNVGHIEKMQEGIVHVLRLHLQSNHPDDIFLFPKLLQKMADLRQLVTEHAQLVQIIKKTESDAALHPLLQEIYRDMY
Protocol: as §1

AHH-1 TK± cells = test system: AHH-1 TK± cells
Source text: The reporter gene expression as reported in previous tables and figures is expressed as pmoles product/well in a 96 well microtiter plate as measured fluorometrically. […] A toxicity curve reflecting the relative number of cells/well present at the end of treatment was obtained as a function of chemical concentration. […] This suppression can be corrected for by determining the cell concentration in the well or by determining the suppression of CH activity in a cell line which constitutively expresses the reporter.

[2] = test system: PPARα/GR chimeric receptors
Protocol: as §3

CCOC(=O)C(C)(C)Oc1ccc(Cl)cc1 [clofibrate]
CYP2A6-catalyzed coumarin 7-hydroxylase activity upon treatment of the cells (mouse PPARα): concentration dependent increase
clofibrate-induced activity relative to background levels (mouse PPARα): 3 to 10 times
fold induction after growth in exponential cell culture (mouse PPARα): about 2 fold
fold induction, initial (mouse PPARα): 4 to 6 fold
increase in CYP2A6 expression after exposure to clofibrate (mouse PPARα): greater than 10 fold
potency rank on a molar basis (mouse PPARα): then clofibrate
ranking of chemicals of known ability to induce peroxisome proliferation (mouse PPARα): correctly rank
reporter gene expression, concentration response (mouse PPARα): concentration-dependent increases
signal-to-noise ratio (mouse PPARα): about 10
fold induction at 1100 µM (mouse PPARα; read-out: Coumarin Hydroxylase Activity Induced (Fold), cell line 7.10/T225, receptor orientation 3'-5' (HSVtk mPPAR; SV40, JCO, HSVtk#7)): 0.9
fold induction at 1100 µM (mouse PPARα; read-out: Coumarin Hydroxylase Activity Induced (Fold), cell line 7.3/T225, receptor orientation 3'-5' (HSVtk mPPAR; SV40, JCO, HSVtk#7)): 0.9
fold induction at 1100 µM (mouse PPARα; read-out: Coumarin Hydroxylase Activity Induced (Fold), cell line 7.3/T225, receptor orientation 5'-3' (HSVtk mPPAR; SV40, JCO, HSVtk#7)): 1.5
fold induction at 1100 µM (mouse PPARα; read-out: Coumarin Hydroxylase Activity Induced (Fold), cell line T194 (SV40 3'-5' mPPAR; HSVtk-OCT, ACO, HSVtkL15)): 1.5
fold induction at 1100 µM (mouse PPARα; read-out: Coumarin Hydroxylase Activity Induced (Fold), cell line T194/HSVtk#7 (SV40 3'-5' mPPAR; SV40, ACO, HSVtk#7)): 3.3
fold induction at 1100 µM (mouse PPARα; read-out: Coumarin Hydroxylase Activity Induced (Fold), cell line T194/T144 (SV40 3'-5' mPPAR; SV40, ACO, MMTV-LTR3)): 1.2
fold induction at 1100 µM (mouse PPARα; read-out: Coumarin Hydroxylase Activity Induced (Fold), cell line T247 (HSVtk 3'-5' mPPAR; HSVtk-OCT, JCO, HSVtkL15)): 1.2
maximal fold induction (mouse PPARα; high copy number reporter, vector T144/194, clone 6-1, sequential independent determinations): 1.57
maximal fold induction (mouse PPARα; high copy number reporter, vector T144/194, clone 6-3, sequential independent determinations): 1.17
maximal fold induction (mouse PPARα; high copy number reporter, vector T144/194, clone 6-4): 1.36
maximal fold induction (mouse PPARα; high copy number reporter, vector T194EH#7, clone 8-1): 1.04
maximal fold induction (mouse PPARα; high copy number reporter, vector T194EH#7, clone 8-5, sequential independent determinations): 1.27
maximal fold induction (mouse PPARα; high copy number reporter, vector T194EH#7, clone 8-11): 1.15
maximal fold induction (mouse PPARα; high copy number reporter, vector T194EH#7, clone 8-12): 1.21
maximal fold induction (mouse PPARα; high copy number reporter, vector T194EH#7, clone 8-14): 1.15
maximal fold induction (mouse PPARα; vector T194EH#7, clone 8-6 (probably no functional high copy reporter)): 3.44
maximal fold induction (mouse PPARα; vector T194EH#7, clone 8-16 (probably no functional high copy reporter)): 3.73
7-hydroxycoumarin production in control cells [1]: No increase
clofibrate induction of CH activity in cells containing the reporter alone [1]: did not respond
induction of 7-hydroxycoumarin production in the absence of the PPARα [1]: no induction
fold induction at 1100 µM ([1]; read-out: Coumarin Hydroxylase Activity Induced (Fold), cell line T192 (no receptor; HSVtk-OCT, ACO, HSVtkL15)): 0.8
fold induction at 1100 µM ([1]; read-out: Coumarin Hydroxylase Activity Induced (Fold), cell line T192/T144 (no receptor; HSVtk-OCT, ACO, MMTV-LTR3)): 0.7
fold induction at 1100 µM ([1]; read-out: Coumarin Hydroxylase Activity Induced (Fold), cell line T245 (no receptor; HSVtk-OCT, JCO, HSVtkL15)): 0.9
fold induction at 1100 µM (hPPAR; read-out: Coumarin Hydroxylase Activity Induced (Fold), cell line T248 (HSVtk 3'-5' hPPAR; HSVtk-OCT, JCO, HSVtkL15)): 0.9
fold induction at 1100 µM (hPPAR; read-out: Coumarin Hydroxylase Activity Induced (Fold), cell line T249 (HSVtk 3'-5' hPPAR; HSVtk-OCT, JCO, HSVtkL15)): 1.1
difference in toxicity among cell lines (AHH-1 TK± cells): No differences in toxicity
toxicity to the cells (AHH-1 TK± cells): toxic
7-hydroxycoumarin production by cell lines containing the chimeras [2]: very small but detectable, concentration-dependent increase
